Data set [1] deals with MCF-7 cells. Kind of data set: Azide-reporter generation by confocal microscopy (DBCO-Cy5 MFI), MCF-7. In kind it is cell-based, human. The note with it: breast cancer MCF-7 versus normal fibroblast L929. Here is the method:
(§1) For azide generation analysis in breast cancer cells and mouse fibroblasts, MCF-7 cells were cultured in 5% fetal bovine serum and RPMI 1640 medium and L929 cells were cultured in 10% fetal bovine serum and DMEM medium at 37 °C in a 5% CO2 incubator.
(§2) For fluorescence quantification, 4 × 10^4 cell per mL of MCF-7 and 1 × 10^4 cell per mL of L929 cells were seeded into a 35 mm covered glass-bottom dishes and incubated with 50 μM Ac4ManNAz-, 4-, and 5-containing medium for 72 h at 37 °C CO2 incubator, respectively. Then to visualize the azide groups, the sugar-containing medium was removed and the cells were washed twice with PBS and further incubated with 20 μM dibenzylcyclooctyne-conjugated Cy5 (DBCO-Cy5)-containing fresh medium for 1 h at 37 °C. Then, the cells were washed twice with PBS and fixed with formaldehyde fixative for 10 min in dark conditions. After fixation, the cells were washed twice with PBS and mounted with 4,6-diamidino-2-phenylindole (DAPI) (5 μg mL^−1). The cells were observed using a confocal laser microscope (Nikon A1R Confocal with 405, 445, 488, 514, 561 and 640 nm lasers). The mean fluorescence intensity was analyzed using ImageJ software and the data were represented as absolute values.

In data set [2] the test system is L929 cells. As to the kind of experiment: Azide-reporter generation by confocal microscopy (DBCO-Cy5 MFI), L929. The class given is cell-based, mouse. To be noted: 50 μM, 72 h; DBCO-Cy5 20 μM 1 h. Here is the method:
as §1, §2

In data set [3] the test system is L929 cells. As to the kind of experiment: Azide-reporter generation by Western blotting, L929. The class given is cell-based, mouse. To be noted: 50 μM, 72 h; lysates reacted with phosphine-PEG3-biotin. Here is the method:
as §1
To analyse the engineered azide groups in glycoproteins in vitro, 4 × 10^4 cell per mL of MCF-7 and 1 × 10^4 cell per mL of L929 cells were seeded into 6-well plates and incubated with 50 μM Ac4ManNAz-, 4-, and 5-containing medium for 72 h at 37 °C CO2 incubator, respectively. Cells were then washed twice with ice cold PBS and lysed using ice cold RIPA buffer (Thermo Fisher Scientific, UK) with 1% protease inhibitor cocktail. Lysates were centrifuged at 12 000 rpm for 10 min at 4 °C to remove cell debris. The total protein of each sample was quantified by DC assay (Bio-rad DC Protein Assay Kit, Bio-rad, UK). The lysates were then incubated with 0.5 μM phosphine-PEG3-biotin (Thermo Fisher Scientific, UK) for 12 h at room temperature. The proteins from each sample were mixed with 1× sodium dodecyl sulfate (SDS) gel-loading buffer (125 mol L^−1 Tris, pH 6.8, 5% glycerol, 2% SDS, 1% β-mercaptoethanol, and 0.006% bromophenol blue) and boiled for 5 min. Then, 20 μg of proteins was separated by 8% SDS – polyacrylamide gel electrophoresis and transferred onto PVDF membranes. The membranes were blocked for 1.5 h at room temperature in 0.5% bovine serum albumin (BSA) containing 1× TBST solution (10 mol L^−1 Tris, pH 7.4, 100 mol L^−1 NaCl, and 0.1% Tween 20). Then, the membranes were incubated with streptavidin-HRP (Cell Signalling Technology, UK) containing 1× TBST solution for overnight at 4 °C. Next day, the membranes were washed three times using 1× TBST and protein band was detected with an ECL system.

Data set [4] is described as follows: Cell viability of L929 cells after azide-modified sugars (MTT). In kind it is cell-based. To be noted: mouse, L929 fibroblast cells, 50 μM sugar, no change compared to control.
Data set [5] deals with MCF-7 cells. As to the kind of experiment: MTT assay, prodrug activation and anticancer activity in MCF-7 cells. The class given is cell-based, human. The note with it: for IC50: Homo sapiens, MTT, mean ± SEM (n = 3). Here is the method: (§3) The in vitro prodrug activation and anticancer activity of compounds 10 and 12 was determined using the MTT assay. MCF-7 cells or L929 cells were incubated with 50 μM Ac4ManNAz-, 4-, and 5-containing RPMI medium or 50 μM Ac4ManNAz-, 4-, and 5-containing DMEM medium, respectively for 72 h at 37 °C CO2 incubator as described above. Then, the engineered and non-engineered MCF-7 cells or L929 cells were seeded on 96-well plates (4 × 10^4 cells per mL) or (1 × 10^5 cells per mL), respectively and incubated at 37 °C for 24 h. Cells were then treated with a range of concentration of both prodrugs 10 and 12 (0.001–10 μM) and incubated for 72 h. After incubation, the treatments-containing medium was removed and 20 μL of 0.5 mg mL^−1 MTT in PBS solution was added in each well for 4 h. The resulting formazan crystals were dissolved in 100 μL of DMSO after carefully removing the MTT solution. The absorbance was recorded at 570 nm by InfiniteF50 TECAN microplate reader. The cells without any treatment were used as the control. Assays were performed in three replicates, which the statistical mean and standard deviation were used to estimate the cell viability. IC50 (inhibitory concentration to induce 50% cell death) values were determined using GraphPad Prism 8.0.2 according to the fitted data.

The subject of data set [6] is L929 cells. As to the kind of experiment: MTT assay, prodrug activation and cytotoxicity in L929 cells. In kind it is cell-based, mouse. The note with it: for prodrug activation on L929 cells: L929 cells pre-treated with azido-sialic acid derivatives 4 and 5, 50 μM; for IC50: Mus musculus, MTT, mean ± SEM (n = 3); for IC50 on L929 cells relative to MCF-7 cells: non-engineered cells, L929 IC50 higher than MCF-7 IC50. Here is the method: as §3

[7] abbreviates: MCF7, 4-engineered MCF-7 cells (50 μM 4, 72 h pre-treatment).
[8] abbreviates: MCF7, 5-engineered MCF-7 cells (50 μM 5, 72 h pre-treatment).
Where [9] appears, read: MCF7, 72 h, non-engineered MCF-7 cells, 72 h.
The mark [10] stands for this setting: MCF7, Ac4ManNAz-engineered MCF-7 cells (50 μM, 72 h pre-treatment).
Setting [11] is: L929, 4-engineered L929 cells (50 μM 4, 72 h pre-treatment).
[12] abbreviates: L929, 5-engineered L929 cells (50 μM 5, 72 h pre-treatment).
The mark [13] stands for this setting: L929, 72 h, non-engineered L929 cells, 72 h.
Where [14] appears, read: L929, Ac4ManNAz-engineered L929 cells (50 μM, 72 h pre-treatment).

For the molecule `CC(=O)N[C@H]1[C@H]([C@H](O)[C@H](O)CN=[N+]=[N-])OC(O)(C(=O)O)C[C@@H]1O` (stereo in doubt) [Compound 4, 9-Azido-5-acetamido-3,5,9-trideoxy-β-D-glycero-D-galacto-2-nonulosonic acid], the “higher azide expression on MCF-7 cells versus L929 cells” value in the data set on MCF-7 cells [1] is reported as roughly 17 fold. The “fluorescence in L929 cells (confocal)” value with L929 cells [2] was “did not show any fluorescence”. In addition, the “azide incorporation in L929 cells (Western blotting)” value (“azide incorporation in L929 cells” for short) with L929 cells [3] was “did not show any azide-reporter generation”. In addition, the viability at 50 µM in data set [4] stood at 92.4 ± 1.6%.
For the molecule `CC(=O)OC[C@H]1OC(OC(C)=O)[C@@H](NC(=O)CN=[N+]=[N-])[C@@H](OC(C)=O)[C@@H]1OC(C)=O` (stereo partly drawn) [Ac4ManNAz, Tetra-O-acetyl azidomannosamine, reference compound], in the data set on L929 cells [3], the “azide incorporation in L929 cells” value is given as “caused the azide incorporation”. Moreover, the viability at 50 µM in data set [4] turned out to be 97.5 ± 5.2%.
For the molecule `CC(=O)N[C@H]1[C@H]([C@H](OC(C)=O)[C@@H](CN=[N+]=[N-])OC(C)=O)O[C@@](OC(C)=O)(C(=O)O)C[C@@H]1OC(C)=O` [Compound 5, 9-Azido-5-acetamido-2,4,7,8-tetracetyl-3,5,9-trideoxy-β-D-glycero-D-galacto-2-nonulosonic acid], the “higher azide expression on MCF-7 cells versus L929 cells” value in the data set with MCF-7 cells [1] is roughly 17 fold. In the data set with L929 cells [2], the “fluorescence in L929 cells (confocal)” value is listed as “did not show any fluorescence”. Moreover, in the data set on L929 cells [3], the “azide incorporation in L929 cells” value is “did not show any azide-reporter generation”. The viability at 50 µM in data set [4] turned out to be 122 ± 5.5%.
Regarding `COc1cccc2c1C(=O)c1c(O)c3c(c(O)c1C2=O)C[C@@](O)(C(=O)CO)C[C@@H]3OC1C[C@@H](NC(=O)c2ccccc2P(c2ccccc2)c2ccccc2)[C@@H](O)[C@@H](C)O1` (stereo partly drawn) [Dox-prodrug 12, 2-(Diphenylphosphino)-N-((2R,3R,4R)-3-hydroxy-2-methyl-6-(((1S,3S)-3,5,12-trihydroxy-3-(2-hydroxyacetyl)-10-methoxy-6,11-dioxo-1,2,3,4,6,11-hexahydrotetracen-1-yl)oxy)tetrahydro-2H-pyran-4-yl)benzamide], the IC50 in the data set on MCF-7 cells [5] (setting [7]) stood at 0.5 ± 0.03 µM; in the data set on MCF-7 cells [5] (setting [8]) it was 1.6 ± 0.09 µM; with MCF-7 cells [5] (setting [9]), 4.6 ± 0.19 µM; with MCF-7 cells [5] (setting [10]) it was 0.2 ± 0.01 µM; in the data set with L929 cells [6] (setting [11]), 11.2 ± 1.04 µM; in the data set with L929 cells [6] (setting [12]), 10.7 ± 0.22 µM. Further, the half-inhibitory concentration (IC50) in the data set on L929 cells [6] (setting [13]) came to 11.3 ± 0.23 µM; in the data set on L929 cells [6] (setting [14]), 7.7 ± 0.26 µM. Besides, in the data set with MCF-7 cells [5] (non-engineered MCF-7 cells, IC50 of prodrug 12 vs doxorubicin 11), the “decrease in potency of prodrug versus doxorubicin” value is on record as “more than 20 fold”. For the same molecule, the “prodrug activation on L929 cells” value in the data set on L929 cells [6] was “No activation”. In addition, the “IC50 on L929 cells relative to MCF-7 cells” value in the data set with L929 cells [6] is on record as “approximately 2 fold”.
For the molecule `COc1cccc2c1C(=O)c1c(O)c3c(c(O)c1C2=O)C[C@@](O)(C(=O)CO)C[C@@H]3O[C@H]1C[C@H](N)[C@H](O)[C@H](C)O1` [Doxorubicin 11, doxorubicin, reference compound], the IC50 in the data set on MCF-7 cells [5] (setting [9]) came to 0.2 ± 0.03 µM; in the data set with L929 cells [6] (setting [13]), 2.04 ± 0.009 µM.
Take `O=C(Nc1ccc(N(CCCl)CCCl)cc1)c1ccccc1P(c1ccccc1)c1ccccc1` [N-mustard prodrug 10, N-(4-(Bis(2-chloroethyl)amino)phenyl)-2-(diphenylphosphaneyl)benzamide]: the IC50 in the data set with MCF-7 cells [5] (setting [7]) is 2.1 ± 1.11 µM; in the data set with MCF-7 cells [5] (setting [8]) it was 9.3 ± 0.63 µM; in the data set on MCF-7 cells [5] (setting [9]), 20.8 ± 1.27 µM; with MCF-7 cells [5] (setting [10]), 0.6 ± 0.08 µM; with L929 cells [6] (setting [11]), 29.9 ± 0.69 µM; in the data set on L929 cells [6] (setting [12]), 29.7 ± 1.2 µM. The IC50 in the data set on L929 cells [6] (setting [13]) came out at 31.4 ± 0.44 µM; with L929 cells [6] (setting [14]), 21.1 ± 0.58 µM. Moreover, the “prodrug activation on L929 cells” value in the data set with L929 cells [6] was “No activation”. The “IC50 on L929 cells relative to MCF-7 cells” value in the data set with L929 cells [6] is on record as “approximately 2 fold”.

The record behind these values is article PMC10429771, “Bioorthogonal activation of prodrugs, for the potential treatment of breast cancer, using the Staudinger reaction” (RSC Medicinal Chemistry, 2023).
